Here are results for 1 molecule from BindingDB's records for doi:10.1021/jm00123a012 (Dainippon Pharmaceutical, 1989).

This test has as its target Polyunsaturated fatty acid 5-lipoxygenase (Cavia porcellus). In words: Inhibitory activity against 5-lipoxygenase in guinea pig leukocyte.

`Cc1ccc(/C=C/C(=O)NCCCCN2CCN(C(c3ccccc3)c3ccccc3)CC2)cn1` [N-[4-(4-Benzhydryl-piperazin-1-yl)-butyl]-3-(6-methyl-pyridin-3-yl)-acrylamide]: the IC50 was 4.86 µM.
